# Assays:
# HCC1599 [1] = assay: normalised viability (% of control), CellTiter-Blue; higher = more viable cells (100 = DMSO, 0 = benzethonium chloride kill control); conditions: incubation time: 72 h
# Description: (§1)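 DSRT, CellTiter-Blue viability, 72 h incubation. Signal is normalised to DMSO and benzethonium chloride controls. Value is the normalised response at dose 1.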
# BT-549 [2] = assay: as above; conditions: incubation time: 72 h
# Description: as §1
# HDQ-P1 [3] = assay: as above; conditions: incubation time: 72 h
# Description: as §1
# CAL-148 [4] = assay: as above; conditions: incubation time: 72 h
# Description: as §1
# MDA-MB-231 [5] = assay: as above; conditions: incubation time: 72 h
# Description: as §1
# CAL-120 [6] = assay: as above; conditions: incubation time: 72 h
# Description: as §1
# SK-BR-3 [7] = assay: as above; conditions: incubation time: 72 h
# Description: as §1
# MDA-MB-468 [8] = assay: as above; conditions: incubation time: 72 h
# Description: as §1
# BT-474 [9] = assay: as above; conditions: incubation time: 72 h
# Description: as §1
# CAL-51 [10] = assay: as above; conditions: incubation time: 72 h
# Description: as §1
# HCC1143 [11] = assay: as above; conditions: incubation time: 72 h
# Description: as §1
# HCC1937 [12] = assay: as above; conditions: incubation time: 72 h
# Description: as §1
# MFM-223 [13] = assay: as above; conditions: incubation time: 72 h
# Description: as §1
# Hs578T [14] = assay: as above; conditions: incubation time: 72 h
# Description: as §1
# CAL-85-1 [15] = assay: as above; conditions: incubation time: 72 h
# Description: as §1
# MDA-MB-436 [16] = assay: as above; conditions: incubation time: 72 h
# Description: as §1
# DU-4475 [17] = assay: as above; conditions: incubation time: 72 h
# Description: as §1
# MDA-MB-453 [18] = assay: as above; conditions: incubation time: 72 h
# Description: as §1
# HCC1599 [19] = assay: normalised viability (% of control), CellTiter-Blue; higher = more viable cells (about 100 = DMSO control); conditions: incubation time: 72 h
# Summary of the method: (§2)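 The reported figure is normalised viability at a single listed concentration of the series. Breast cancer cell lines (20 µl suspension) went onto 384-well plates holding compound in 5 µl medium for 72 h. CellTiter-Blue (2.5 µl, 2 h, 37 °C) was read by fluorescence at 560/590 nm, and each plate was scaled to vehicle at 100 and a positive kill control at 0.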
# BT-549 [20] = assay: as above; conditions: incubation time: 72 h
# Summary of the method: as §2
# HDQ-P1 [21] = assay: as above; conditions: incubation time: 72 h
# Summary of the method: as §2
# CAL-148 [22] = assay: as above; conditions: incubation time: 72 h
# Summary of the method: as §2
# MDA-MB-231 [23] = assay: as above; conditions: incubation time: 72 h
# Summary of the method: as §2
# CAL-120 [24] = assay: as above; conditions: incubation time: 72 h
# Summary of the method: as §2
# SK-BR-3 [25] = assay: as above; conditions: incubation time: 72 h
# Summary of the method: as §2
# MDA-MB-468 [26] = assay: as above; conditions: incubation time: 72 h
# Summary of the method: as §2
# BT-474 [27] = assay: as above; conditions: incubation time: 72 h
# Summary of the method: as §2
# CAL-51 [28] = assay: as above; conditions: incubation time: 72 h
# Summary of the method: as §2
# HCC1143 [29] = assay: as above; conditions: incubation time: 72 h
# Summary of the method: as §2
# HCC1937 [30] = assay: as above; conditions: incubation time: 72 h
# Summary of the method: as §2
# MFM-223 [31] = assay: as above; conditions: incubation time: 72 h
# Summary of the method: as §2
# Hs578T [32] = assay: as above; conditions: incubation time: 72 h
# Summary of the method: as §2
# CAL-85-1 [33] = assay: as above; conditions: incubation time: 72 h
# Summary of the method: as §2
# MDA-MB-436 [34] = assay: as above; conditions: incubation time: 72 h
# Summary of the method: as §2
# DU-4475 [35] = assay: as above; conditions: incubation time: 72 h
# Summary of the method: as §2
# MDA-MB-453 [36] = assay: as above; conditions: incubation time: 72 h
# Summary of the method: as §2
# HCC1599 [37] = assay: normalised viability (% of control), CellTiter-Blue; higher = more viable cells (about 100 = DMSO control); conditions: 100 nM; incubation time: 72 h
# Description: (§3)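 DSRT, CellTiter-Blue viability, 72 h incubation. Signal is normalised to DMSO and benzethonium chloride controls. Value is the normalised response at dose 3.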
# BT-549 [38] = assay: as above; conditions: 100 nM; incubation time: 72 h
# Description: as §3
# HDQ-P1 [39] = assay: as above; conditions: 10 nM; incubation time: 72 h
# Description: as §3
# CAL-148 [40] = assay: as above; conditions: 10 nM; incubation time: 72 h
# Description: as §3
# MDA-MB-231 [41] = assay: as above; conditions: 100 nM; incubation time: 72 h
# Description: as §3
# CAL-120 [42] = assay: as above; conditions: 100 nM; incubation time: 72 h
# Description: as §3
# SK-BR-3 [43] = assay: as above; conditions: 100 nM; incubation time: 72 h
# Description: as §3
# MDA-MB-468 [44] = assay: as above; conditions: 100 nM; incubation time: 72 h
# Description: as §3
# BT-474 [45] = assay: as above; conditions: 100 nM; incubation time: 72 h
# Description: as §3
# CAL-51 [46] = assay: as above; conditions: 10 nM; incubation time: 72 h
# Description: as §3
# HCC1143 [47] = assay: as above; conditions: 100 nM; incubation time: 72 h
# Description: as §3
# HCC1937 [48] = assay: as above; conditions: 100 nM; incubation time: 72 h
# Description: as §3
# MFM-223 [49] = assay: as above; conditions: 100 nM; incubation time: 72 h
# Description: as §3
# Hs578T [50] = assay: as above; conditions: 100 nM; incubation time: 72 h
# Description: as §3
# CAL-85-1 [51] = assay: as above; conditions: 10 nM; incubation time: 72 h
# Description: as §3
# MDA-MB-436 [52] = assay: as above; conditions: 100 nM; incubation time: 72 h
# Description: as §3
# DU-4475 [53] = assay: as above; conditions: 10 nM; incubation time: 72 h
# Description: as §3
# MDA-MB-453 [54] = assay: as above; conditions: 10 nM; incubation time: 72 h
# Description: as §3
structure (smiles),measurement,setting,value
c1ccc(C2CN3CCSC3=N2)cc1 (stereo not drawn) [Tetramisole] (1 nM),normalised viability,HCC1599 [1],95.3%
same,normalised viability,BT-549 [2],97.8%
same,normalised viability,HDQ-P1 [3],126%
same,normalised viability,CAL-148 [4],117%
same,normalised viability,MDA-MB-231 [5],99.2%
same,normalised viability,CAL-120 [6],118%
same,normalised viability,SK-BR-3 [7],116%
same,normalised viability,MDA-MB-468 [8],112%
same,normalised viability,BT-474 [9],80.2%
same,normalised viability,CAL-51 [10],91.6%
same,normalised viability,HCC1143 [11],107%
same,normalised viability,HCC1937 [12],94.3%
same,normalised viability,MFM-223 [13],98.5%
same,normalised viability,Hs578T [14],110%
same,normalised viability,CAL-85-1 [15],96.5%
same,normalised viability,MDA-MB-436 [16],102%
same,normalised viability,DU-4475 [17],83%
same,normalised viability,MDA-MB-453 [18],106%
O=P(O)(NCCCl)NCCCl [Ifosfamide mustard] (1 nM),normalised viability,HCC1599 [1],109%
same,normalised viability,BT-549 [2],102%
same,normalised viability,HDQ-P1 [3],88.6%
same,normalised viability,CAL-148 [4],111%
same,normalised viability,MDA-MB-231 [5],101%
same,normalised viability,CAL-120 [6],82.2%
same,normalised viability,SK-BR-3 [7],91.8%
same,normalised viability,MDA-MB-468 [8],101%
same,normalised viability,BT-474 [9],113%
same,normalised viability,CAL-51 [10],108%
same,normalised viability,HCC1143 [11],97.4%
same,normalised viability,HCC1937 [12],92.3%
same,normalised viability,MFM-223 [13],94.9%
same,normalised viability,Hs578T [14],116%
same,normalised viability,CAL-85-1 [15],85.5%
same,normalised viability,MDA-MB-436 [16],110%
same,normalised viability,DU-4475 [17],106%
same,normalised viability,MDA-MB-453 [18],109%
COC(=O)C[C@](O)(CCCC(C)(C)O)C(=O)O[C@@H]1C(OC)=C[C@]23CCCN2CCc2cc4c(cc2[C@H]13)OCO4 [Omacetaxine mepesuccinate],normalised viability,HCC1599 [19]; 10 nM,68.9%
same,normalised viability,HCC1599 [19]; 1000 nM,17%
same,normalised viability,HCC1599 [19]; 10000 nM,12.9%
same,normalised viability,BT-549 [20]; 10 nM,87.2%
same,normalised viability,BT-549 [20]; 1000 nM,7.63%
same,normalised viability,BT-549 [20]; 10000 nM,4.5%
same,normalised viability,HDQ-P1 [21]; 3 nM,92.5%
same,normalised viability,HDQ-P1 [21]; 30 nM,24.6%
same,normalised viability,HDQ-P1 [21]; 100 nM,14.9%
same,normalised viability,CAL-148 [22]; 3 nM,96.3%
same,normalised viability,CAL-148 [22]; 30 nM,26%
same,normalised viability,CAL-148 [22]; 100 nM,14.8%
same,normalised viability,MDA-MB-231 [23]; 10 nM,87.9%
same,normalised viability,MDA-MB-231 [23]; 1000 nM,6.79%
same,normalised viability,MDA-MB-231 [23]; 10000 nM,3.89%
same,normalised viability,CAL-120 [24]; 10 nM,69.2%
same,normalised viability,CAL-120 [24]; 1000 nM,7.92%
same,normalised viability,CAL-120 [24]; 10000 nM,5.91%
same,normalised viability,SK-BR-3 [25]; 10 nM,89.4%
same,normalised viability,SK-BR-3 [25]; 1000 nM,6.71%
same,normalised viability,SK-BR-3 [25]; 10000 nM,3.15%
same,normalised viability,MDA-MB-468 [26]; 10 nM,90.2%
same,normalised viability,MDA-MB-468 [26]; 1000 nM,4.25%
same,normalised viability,MDA-MB-468 [26]; 10000 nM,3.02%
same,normalised viability,BT-474 [27]; 10 nM,118%
same,normalised viability,BT-474 [27]; 1000 nM,23%
same,normalised viability,BT-474 [27]; 10000 nM,13.3%
same,normalised viability,CAL-51 [28]; 3 nM,101%
same,normalised viability,CAL-51 [28]; 30 nM,31.6%
same,normalised viability,CAL-51 [28]; 100 nM,11.8%
same,normalised viability,HCC1143 [29]; 10 nM,87.2%
same,normalised viability,HCC1143 [29]; 1000 nM,14.2%
same,normalised viability,HCC1143 [29]; 10000 nM,11%
same,normalised viability,HCC1937 [30]; 10 nM,55.9%
same,normalised viability,HCC1937 [30]; 1000 nM,13.9%
same,normalised viability,HCC1937 [30]; 10000 nM,14.3%
same,normalised viability,MFM-223 [31]; 10 nM,88.3%
same,normalised viability,MFM-223 [31]; 1000 nM,8.87%
same,normalised viability,MFM-223 [31]; 10000 nM,4.39%
same,normalised viability,Hs578T [32]; 10 nM,111%
same,normalised viability,Hs578T [32]; 1000 nM,1.46%
same,normalised viability,Hs578T [32]; 10000 nM,1.1%
same,normalised viability,CAL-85-1 [33]; 3 nM,86.8%
same,normalised viability,CAL-85-1 [33]; 30 nM,25.3%
same,normalised viability,CAL-85-1 [33]; 100 nM,9.04%
same,normalised viability,MDA-MB-436 [34]; 10 nM,88.5%
same,normalised viability,MDA-MB-436 [34]; 1000 nM,19%
same,normalised viability,MDA-MB-436 [34]; 10000 nM,11.7%
same,normalised viability,DU-4475 [35]; 3 nM,81%
same,normalised viability,DU-4475 [35]; 30 nM,2.2%
same,normalised viability,DU-4475 [35]; 100 nM,4.43%
same,normalised viability,MDA-MB-453 [36]; 3 nM,109%
same,normalised viability,MDA-MB-453 [36]; 30 nM,44.5%
same,normalised viability,MDA-MB-453 [36]; 100 nM,21.4%
same,normalised viability,HCC1599 [37],29.4%
same,normalised viability,BT-549 [38],19.2%
same,normalised viability,HDQ-P1 [39],73%
same,normalised viability,CAL-148 [40],67.6%
same,normalised viability,MDA-MB-231 [41],22.1%
same,normalised viability,CAL-120 [42],15.1%
same,normalised viability,SK-BR-3 [43],18.3%
same,normalised viability,MDA-MB-468 [44],17.7%
same,normalised viability,BT-474 [45],54.8%
same,normalised viability,CAL-51 [46],92.8%
same,normalised viability,HCC1143 [47],37.7%
same,normalised viability,HCC1937 [48],14.9%
same,normalised viability,MFM-223 [49],31%
same,normalised viability,Hs578T [50],6.8%
same,normalised viability,CAL-85-1 [51],79.7%
same,normalised viability,MDA-MB-436 [52],21.4%
same,normalised viability,DU-4475 [53],25.1%
same,normalised viability,MDA-MB-453 [54],90.2%

# From the supplement of paper PMC4862054
